Results: patent US12286442B2, “Methods and materials for increasing transcription factor eb polypeptide levels” (University of Pittsburgh—Of the Commonwealth System of …, priority 2019, dated 2025)

Tests used:
BEAS-2B cells = assay: Toxicity: compound concentration needed to induce greater than 50 percent of cell loss; type: cell-based, human; details: 18 hours incubation
Protocol: (§1) Approximately 2300 primary and immortalized human bronchial epithelial cells (BEAS-2B) stably expressing TFEB-EGFP in 25 μL of HITEs media with 10% FBS were dispensed into 384 well plate (Black with glass bottom) and incubated for 8 hours. Compound serial dilution (DMEM low glucose media with 2% FBS, 25 μL volume) were prepared using a robotic liquid hander. Compound solution were then added to the cell plate and incubated for 18 hours. Cells were then fixed with 4% PFA followed by DAPI staining. TFEB localization was imaged on the GFP channel along with the DAPI signal using a Cytation 5 high content imager. Images were processed through Biotek Gen5 software. Specifically, the DAPI signal was used as the primary mask to quantify the nuclear TFEB-GFP signal. Cytosolic TFEB-GFP signal was quantified through expanding the primary mask. The TFEB nuclear/cytosol ratios were calculated from nuclear TFEB-GFP signal/cytosol TFEB-GFP signal, which determined the compound efficacies.
Toxicity was determined by determining the compound concentration needed to induce greater than 50 percent of cell loss. For toxicity, cell loss of greater than 50 percent at a concentration that equals or is greater than 25 μM was represented as cell loss of greater than 50 percent at a concentration less than 25 μM and greater than 1 μM was represented as and cell loss of greater than 50 percent at a concentration that equals or is less than 1 μM was represented as “+++.” The assay results for compounds 1-202, 214-248, 332, 333, and 352-402 are shown in Table A.

TFEB = assay: High content screen measuring TFEB nuclear accumulation (TFEB nuclear/cytosol ratio) in BEAS-2B cells stably expressing TFEB-EGFP; type: cell-based, human; details: 18 hours incubation
Protocol: FIG. 3. High content screen assay (384 well) measuring TFEB nuclear accumulation. Approximately 2500 primary and immortalized human bronchial epithelial cells (BEAS-2B) stably expressing TFEB-EGFP in 25 μL of HITEs media with 10% FBS were dispensed into 384 well plate (Black with glass bottom) and incubated for 8 hours. Compound serial dilution (DMEM low glucose media with 2% FBS, 25 μL volume) were prepared using a robotic liquid hander. Compound solutions were then added to the cell plate and incubated for 18 hours. Cells were then fixed with 4% PFA followed by DAPI staining. TFEB localization was imaged on the GFP channel along with the DAPI signal using a Cytation 5 high content imager. Images were processed through Biotek Gen5 software; specifically, the DAPI signal was used as the primary mask to quantify the nuclear TFEB-GFP signal. The cytosolic TFEB-GFP signal was quantified through expanding the primary mask. The TFEB nuclear/cytosol ratios were calculated from nuclear TFEB-GFP signal/cytosol TFEB-GFP signal, which determined the compound efficacy. […] Compound activities (μM) were determined by the minimal compound concentration needed to increase TFEB nuclear/cytosol ratio by 25%. Activity: “−” equals >25 μM; “+” equals between 25 μM and >10 μM; “++” equals between ≤10 μM and >1 μM; and “+++” equals […]. N=4.
as §1
Compounds efficacies (μM) were determined by the minimal compound concentration needed to increase TFEB nuclear/cytosol ratio by 25%. Activity: “+” equals >25 μM; “++” equals between ≤25 μM and >1 μM; and “+++” equals ≤1 μM.
A high-content imaging screen was conducted using Beas2B cells that stably express GFP-TFEB.

| SMILES | toxicity (compound concentration needed to induce greater than 50 percent of cell loss) (BEAS-2B cells) | efficacy (minimal compound concentration needed to increase TFEB nuclear/cytosol ratio by 25%) (TFEB) |
| --- | --- | --- |
| c1ccc(Nc2nc(-c3ccncc3)nc3ccccc23)cc1 [Compound 179] | + (cell loss of greater than 50 percent at a concentration that equals or is greater than 25 μM was represented as) | ++ (“++” equals between ≤25 μM and >1 μM) |
| CNc1ccc(Nc2nc(-c3ccncc3)nc3ccccc23)cc1 [Compound 59] | + (cell loss of greater than 50 percent at a concentration that equals or is greater than 25 μM was represented as) | ++ (“++” equals between ≤25 μM and >1 μM) |
| Fc1cc(Nc2nc(-c3cncs3)nc3ncccc23)cc2cc[nH]c12 [Compound 396] | + (cell loss of greater than 50 percent at a concentration that equals or is greater than 25 μM was represented as) | +++ (“+++” equals ≤1 μM) |
| c1ccc2c(NC3CCN(C4CC4)CC3)nc(-c3ccncc3)nc2c1 [Compound 175] | + (cell loss of greater than 50 percent at a concentration that equals or is greater than 25 μM was represented as) | + (“+” equals >25 μM) |
| Fc1cccc(Nc2cc(-c3ccncc3)nc3ccccc23)c1 [Compound 69] | + (cell loss of greater than 50 percent at a concentration that equals or is greater than 25 μM was represented as) | + (“+” equals >25 μM) |
| Cn1ccc2ccc(Nc3nc(-c4ccncc4)nc4ccccc34)cc21 [Compound 32] | +++ (cell loss of greater than 50 percent at a concentration that equals or is less than 1 μM was represented as “+++.”) | +++ (“+++” equals ≤1 μM) |
| Cc1c(Nc2nc(-c3ccncc3)nc3ccncc23)ccc2[nH]ccc12 [Compound 126] | + (cell loss of greater than 50 percent at a concentration that equals or is greater than 25 μM was represented as) | ++ (“++” equals between ≤25 μM and >1 μM) |
| CCCN(CCC)c1nc(-c2ccncc2)nc2ccccc12 [Compound 166] | + (cell loss of greater than 50 percent at a concentration that equals or is greater than 25 μM was represented as) | + (“+” equals >25 μM) |
| Fc1cccc2nc(-c3ccncc3)nc(Nc3ccc4[nH]ccc4c3)c12 [Compound 111] | + (cell loss of greater than 50 percent at a concentration that equals or is greater than 25 μM was represented as) | + (“+” equals >25 μM) |
| c1ccc2c(Nc3ccc4ncncc4c3)nc(-c3ccncc3)nc2c1 [Compound 102] | + (cell loss of greater than 50 percent at a concentration that equals or is greater than 25 μM was represented as) | +++ (“+++” equals ≤1 μM) |
| c1cnc2ccc(Nc3nc(-c4ccncc4)nc4ccccc34)cc2c1 [Compound 57] | + (cell loss of greater than 50 percent at a concentration that equals or is greater than 25 μM was represented as) | +++ (“+++” equals ≤1 μM) |
| FC(F)(F)c1nc2ccc(Nc3nc(-c4ccncc4)nc4ccccc34)cc2o1 [Compound 96] | + (cell loss of greater than 50 percent at a concentration that equals or is greater than 25 μM was represented as) | + (“+” equals >25 μM) |
| c1ccc2c(Nc3ccc4c(c3)OCCN4)nc(-c3ccncc3)nc2c1 [Compound 41] | ++ (cell loss of greater than 50 percent at a concentration less than 25 μM and greater than 1 μM was represented as) | ++ (“++” equals between ≤25 μM and >1 μM) |
| c1cnc2cc(-c3ccncc3)nc(Nc3ccc4[nH]c(C5CC5)cc4c3)c2c1 [Compound 244] | + (cell loss of greater than 50 percent at a concentration that equals or is greater than 25 μM was represented as) | +++ (“+++” equals ≤1 μM) |
| CC(=O)n1ccc2cc(Nc3nc(-c4ccncc4)nc4ccccc34)ccc21 [Compound 70] | + (cell loss of greater than 50 percent at a concentration that equals or is greater than 25 μM was represented as) | +++ (“+++” equals ≤1 μM) |
| Cc1nc2cc(Cl)c(Nc3nc(-c4ccncc4)nc4ccncc34)cc2o1 [Compound 144] | + (cell loss of greater than 50 percent at a concentration that equals or is greater than 25 μM was represented as) | + (“+” equals >25 μM) |
| c1cc(-c2nc(Nc3ccc4[nH]ccc4c3)c3cnccc3n2)ccn1 [Compound 84] | + (cell loss of greater than 50 percent at a concentration that equals or is greater than 25 μM was represented as) | +++ (“+++” equals ≤1 μM) |
| Cc1cccc2c(Nc3ccc4nc(C5CC5)sc4c3)nc(-c3ccncc3)nc12 [Compound 379] | + (cell loss of greater than 50 percent at a concentration that equals or is greater than 25 μM was represented as) | +++ (“+++” equals ≤1 μM) |
| Cc1c(Nc2nc(-c3ccncc3)nc3ncccc23)ccc2[nH]ccc12 [Compound 137] | + (cell loss of greater than 50 percent at a concentration that equals or is greater than 25 μM was represented as) | +++ (“+++” equals ≤1 μM) |
| Fc1cc(-c2nc(Nc3ccc4[nH]ncc4c3)c3ccccc3n2)ccn1 [Compound 47] | +++ (cell loss of greater than 50 percent at a concentration that equals or is less than 1 μM was represented as “+++.”) | +++ (“+++” equals ≤1 μM) |
| CCc1ccc(-n2c(=O)c3ccccc3n(Cc3cccc(F)c3)c2=O)cc1 [Compound 237] | + (cell loss of greater than 50 percent at a concentration that equals or is greater than 25 μM was represented as) | ++ (“++” equals between ≤25 μM and >1 μM) |
| COc1ccc2nc(-c3ccncc3)nc(Nc3ccc4[nH]ccc4c3)c2c1 [Compound 113] | ++ (cell loss of greater than 50 percent at a concentration less than 25 μM and greater than 1 μM was represented as) | +++ (“+++” equals ≤1 μM) |
| c1cnc2nc(-c3ccncc3)nc(Nc3ccc4nc(C5CC5)oc4c3)c2c1 [Compound 391] | + (cell loss of greater than 50 percent at a concentration that equals or is greater than 25 μM was represented as) | +++ (“+++” equals ≤1 μM) |
| Fc1cccc(Cc2nc(-c3ccncc3)nc3ccccc23)c1 [Compound 7] | + (cell loss of greater than 50 percent at a concentration that equals or is greater than 25 μM was represented as) | + (“+” equals >25 μM) |
| Cc1nc2ccc(Nc3nc(-c4ccncc4)nc4c(C)cccc34)cc2o1 [Compound 377] | + (cell loss of greater than 50 percent at a concentration that equals or is greater than 25 μM was represented as) | ++ (“++” equals between ≤25 μM and >1 μM) |
